Entries after “also recorded” stand apart in the source; their conditions may differ. Bridge positions count the residues as written; N and C are the ends. Square brackets hold non-standard residues; d marks the D form. Peptide text beside a SMILES is read from it. hArg = N=C(N)NCCCC[C@H](N)C(=O)O; Mpa = O=C(O)CCS
Columns and labels:
platelets = experiment: Release of sCD154 from stimulated platelets in platelet-rich plasma (ELISA); format: cell-based, human
Experimental: Platelet-rich plasma (PRP) was prepared from human donors by obtaining blood through a 19-gauge butterfly into PPACK anticoagulant (8.6 ml of 2.1 mM PPACK, Calbiochem, La Jolla, Calif.: final concentration 0.3 mM). Blood was aliquoted into 15 ml polypropylene tubes and centrifuged at 900 rpm for 20 minutes (160×g). The platelet rich plasma (PRP) was carefully removed and pooled in a new tube. Platelet counts were taken and recorded. Aliquots of PRP at 37° C. were then added to 1.5 ml microcentrifuge tubes containing various amounts of eptifibatide. To initiate aggregation, 20 μM ADP 4 μg/mL collagen or 5 μM TRAP6 was added and samples were rocked on a Nutator for 30 minutes at 37° C. The tubes were put on ice and immediately centrifuged at 15,000×g for 10 minutes at 4° C.
The platelet-poor plasma (PPP) supernatant was removed to new tubes and the levels of sCD154 in these samples were measured by ELISA. There was a time-dependent increase in sCD154 release when platelets were aggregated with either ADP or TRAP6.
In other experiments, various concentrations of eptifibatide, abciximab or tirofiban were added to PRP before the addition of TRAP. In the eptifibatide experiments, the release of βTG from platelet a granules was determined from PPP samples by ELISA. Inhibition of aggregation by GP IIb-IIIa antagonists was determined in PPACK-anticoagulated PRP by light-transmission aggregometry (Chrono-Log) as described in Phillips et al. (1995) J Exp. Med 182:33-40. To assess the effect of aspirin use on the release of sCD154 from platelets, PRP was obtained from 7 donors, incubated with a single concentration of GP IIb-IIIa inhibitor, and stimulated with 20 μmol/L ADP, 5 μmol/L TRAP or 4 μg/mL collagen for 30 minutes while rocking at 37° C. Resultant PPP was measured for sCD154. The same donors then took 325 mg of aspirin for 7 days. PRP was again collected and subjected to the same conditions, and the release of sCD154 was determined. A control reading (no addition of inhibitor) was taken with the agonist 0.5 mmol/L arachidonic acid in citrated PRP to ensure that the aspirin had been taken.

CD154−/− mice = experiment: Intravital microscopy thrombosis model of the mouse mesentery (FeCl3-injured arteriole); format: in vivo; settings: single dose 26 μg/mouse, 5 to 10 minutes before arteriole injury
Experimental: The role of CD154 in thrombus formation was investigated using a model that compares wild type (WT) mice with CD154−/− mice that have impaired thrombosis. […] It was observed that the occlusion time is approximately twice as long in the CD 154−/− mouse as in wild type, apart from any other treatment effect.
In this example, the recombinant form of the soluble CD154 was infused into the CD154−/− mouse. Thrombus formation was evaluated using the model as described below.
To perform the investigation, the intravital microscopy thrombosis model of the mouse mesentery was used (Denis et al., PNAS, 95:9524-9, (1998)). The interactions of fluorescently-labeled platelets with a FeCl3-injured arteriolar vessel wall (shear rate ˜1300 s^−1) were analyzed. […]
Immediately after infusion of fluorescent platelets into mice of matching genotypes (4- to 5-weeks old C57BL6J and CD154−/−), animals were anesthetized with 2.5% tribromoethanol (0.15 mL/10 g). […] The shear rate (1000 to 1300 s^−1) was calculated using an optical Doppler velocimeter using known methods (see, e.g., Blood, November 2000). […]
Resting blood vessel was recorded for 2 minutes, then Ferric Chloride (30 μl of a 250-mM solution) was superfused, and video recording was resumed for another 40 minutes, or until full occlusion occurred and lasted for more than 10 seconds. […]

| Molecule | Inhibition of sCD154 Release at >90% Platelet Aggregation Inhibition, % (platelets; TRAP-stimulated platelets, release without GP IIb-IIIa inhibitor set at 100%, average and SD) [%] | release of sCD154 from platelets activated with ADP or TRAP (platelets; inhibitor added prior to agonist, PPACK plasma) | Potentiation of sCD154 Release, % (platelets; maximal potentiation, TRAP-stimulated platelets, release without inhibitor set at 100%, average and SD) [%] | thrombotic process (occlusion) in CD154−/− mice (CD154−/− mice) |
| --- | --- | --- | --- | --- |
| N=C(N)NCCCC[C@@H]1NC(=O)CCSSC[C@@H](C(N)=O)NC(=O)[C@@H]2CCCN2C(=O)[C@H](Cc2c[nH]c3ccccc23)NC(=O)[C@H](CC(=O)O)NC(=O)CNC1=O [eptifibatide] ([Mpa][hArg]GDWPC-NH2; disulfide 1-7) | 85 ± 6.3 | blocked in a dose dependent manner; also recorded: inhibited | 26 ± 10 |  |
| rsCD154: bacterially expressed recombinant human soluble CD154 (108 a.a-261 a.a.), 18-kDa protein (protein) ENSFEMQKGDQNPQIAAHVISEASSKTTSVLQWAEKGYYTMSNNLVTLENGKQLTVKRQGLYYIYAQVTFCSNREASSQAPFIASLCLKSPGRFERILLRAANTHSSAKPCGQQSIHLGGVFELQPGASVFVNVTDPSQVSHGTGFTSFGLLKL |  |  |  | reconstitute a normal thrombotic process |

— patent publication US20040072750A1, “Compounds and methods for the modulation of CD154” (priority 2001, published 2004)
